The NIST ThermoML archive (doi:10.1016/j.jct.2011.02.008)

Settings: Liquid, Vibrating tube method

COC(=O)c1ccccc1 [methyl benzoate]
mass density [kg/m3]
Settings | 278.15 K | 288.15 K | 298.15 K | 308.15 K | 318.15 K | 328.15 K | 338.15 K | 348.15 K | 358.15 K
100 kPa | 1101.5 | 1092.1 | 1082.7 | 1073 | 1063.3 | 1053.6 | 1044.1 | 1034.4 | 1024.9
1000 kPa | 1102.1 | 1092.6 | 1083.2 | 1073.6 | 1063.8 | 1054.3 | 1044.8 | 1035.1 | 1025.6
5000 kPa | 1104.4 | 1095 | 1085.8 | 1076.2 | 1066.7 | 1057.2 | 1048 | 1038.4 | 1029.1
10000 kPa | 1107.2 | 1097.9 | 1089 | 1079.5 | 1070.1 | 1060.8 | 1051.7 | 1042.4 | 1033.3
15000 kPa | 1109.9 | 1100.8 | 1091.8 | 1082.6 | 1073.4 | 1064.3 | 1055.3 | 1046.2 | 1037.3
20000 kPa | 1112.6 | 1103.6 | 1094.8 | 1085.7 | 1076.6 | 1067.6 | 1058.8 | 1049.8 | 1041.2
25000 kPa | 1115.2 | 1106.3 | 1097.6 | 1088.6 | 1079.7 | 1070.9 | 1062.2 | 1053.4 | 1044.9
30000 kPa | 1117.7 | 1109 | 1100.4 | 1091.5 | 1082.8 | 1074 | 1065.5 | 1056.9 | 1048.5
35000 kPa | 1120.2 | 1111.6 | 1103.1 | 1094.3 | 1085.7 | 1077.1 | 1068.8 | 1060.3 | 1052
40000 kPa | 1122.7 | 1114.1 | 1105.7 | 1097.1 | 1088.6 | 1080.1 | 1071.9 | 1063.5 | 1055.4
45000 kPa | 1125.1 | 1116.6 | 1108.3 | 1099.8 | 1091.4 | 1083 | 1074.9 | 1066.7 | 1058.7
50000 kPa | 1127.4 | 1119.1 | 1110.9 | 1102.4 | 1094.1 | 1085.9 | 1077.9 | 1069.8 | 1061.9
55000 kPa | 1129.7 | 1121.4 | 1113.4 | 1105 | 1096.8 | 1088.7 | 1080.8 | 1072.8 | 1065.1
60000 kPa | 1131.8 | 1123.6 | 1115.6 | 1107.4 | 1099.3 | 1091.2 | 1083.5 | 1075.5 | 1067.9

CCCCCCO [hexan-1-ol]
mass density [kg/m3]
Settings | 278.15 K | 288.15 K | 298.15 K | 308.15 K | 318.15 K | 328.15 K | 338.15 K | 348.15 K | 358.15 K
100 kPa | 828.9 | 822.1 | 814.9 | 807.8 | 800.5 | 793 | 785.4 | 777.6 | 769.4
1000 kPa | 829.5 | 822.7 | 815.6 | 808.4 | 801.2 | 793.7 | 786.2 | 778.4 | 770
5000 kPa | 832 | 825.3 | 818.4 | 811.4 | 804.3 | 797 | 789.6 | 782 | 774.2
10000 kPa | 835 | 828.5 | 821.7 | 814.8 | 807.9 | 800.8 | 793.6 | 786.2 | 778.6
15000 kPa | 838 | 831.6 | 824.9 | 818.2 | 811.4 | 804.4 | 797.4 | 790.2 | 782.8
20000 kPa | 840.8 | 834.6 | 828 | 821.4 | 814.7 | 807.9 | 801 | 794.1 | 786.9
25000 kPa | 843.6 | 837.4 | 830.9 | 824.5 | 817.9 | 811.2 | 804.5 | 797.6 | 790.7
30000 kPa | 846.3 | 840.2 | 833.8 | 827.5 | 821 | 814.4 | 807.9 | 801.2 | 794.3
35000 kPa | 848.9 | 842.9 | 836.6 | 830.3 | 824 | 817.6 | 811.1 | 804.6 | 797.9
40000 kPa | 851.4 | 845.5 | 839.4 | 833.2 | 826.9 | 820.6 | 814.2 | 807.8 | 801.3
45000 kPa | 853.9 | 848 | 842 | 835.9 | 829.7 | 823.5 | 817.3 | 811 | 804.6
50000 kPa | 856.3 | 850.5 | 844.6 | 838.5 | 832.4 | 826.4 | 820.2 | 814 | 807.7
55000 kPa | 858.7 | 853 | 847.1 | 841.1 | 835.1 | 829.1 | 823.1 | 817 | 810.8
60000 kPa | 860.9 | 855.4 | 849.6 | 843.5 | 837.7 | 831.6 | 825.7 | 819.7 | 813.5
